The text below walks through data of PubChem BioAssay AID1996.

Values after ≈ are worked out from the molar mass of the structure shown. Bounds are passed on as bounds.

One may read the solubility (kinetic) as the concentration staying in solution when a stock, usually in DMSO, is diluted into the medium.

For the data set the following is noted: buffer; pH 7.4; 200.0 µM.
As for `O=C(/C=C/c1ccncc1)c1ccc2c(c1)OCCO2`, the solubility (kinetic) was determined as 26.9 µg/mL (≈ 101 µM). The value for `Cn1c(=O)c2c(=O)cc(N)[nH]c2n(C)c1=O` was 12.1 µg/mL (≈ 54.5 µM); that for `O=C(Nc1ccc(N2CCOCC2)nc1)c1cccs1` was more than 43.4 µg/mL. Turning to `CC1CN(CC(=O)Nc2nc3ccccc3s2)CC(C)O1` (stereo not drawn), the solubility (kinetic) was 39 µg/mL (≈ 128 µM). `O=C(N/C(=C/c1ccc(F)cc1)C(=O)N1CCCC1)c1ccccc1` showed a solubility (kinetic) of more than 50.8 µg/mL. As for `COc1ccc(CNC(=O)C2CCCC2)cc1`, the kinetic solubility was found to be 28.6 µg/mL (≈ 123 µM). Next, `COc1ccccc1NC(=O)COC(=O)C1C2CC3OC(=O)C1C3C2` (stereo not drawn): more than 51.8 µg/mL. For `CCOC(=O)c1cc(-c2csc(Nc3ccccc3Cl)n2)on1`, the kinetic solubility amounted to 0.6 µg/mL (≈ 1.72 µM).

For the compound `Cc1cc2c(cc1C)C(c1ccccc1OC(C)C)CC(=O)N2` (stereo not drawn), the solubility (kinetic) was less than 0.7 µg/mL. In turn, `COc1cccc(NC(=O)NCc2c(-c3ccccc3)noc2C)c1` displayed a kinetic solubility of 2.4 µg/mL (≈ 7.11 µM).

`CCOc1ccc(NC(=S)Nc2cccc3cnccc23)cc1`: the kinetic solubility came to 24.6 µg/mL (≈ 76.1 µM).

The compound `O=C(O)c1cc(-c2ccco2)nc2cc3ccccc3cc12` gave a kinetic solubility of more than 43.4 µg/mL. Next, `CC(=O)Nc1ccc(S(=O)(=O)NCC(=O)OCC(=O)NCc2ccc3c(c2)OCO3)cc1`: more than 69.5 µg/mL.

With `COc1ccc(CNC(=S)Nc2ccccc2)cc1Cl`, the solubility (kinetic) is 31.7 µg/mL (≈ 103 µM). Regarding `COc1ccc([N+](=O)[O-])cc1N1C(=O)c2cccnc2C1=O`, the solubility (kinetic) is more than 44.9 µg/mL. The value for `CCN(CC)c1ccc(/C=C(/C#N)C(=O)NC(C)C)o1` was 38.6 µg/mL (≈ 140 µM); that for `CC(OC(=O)c1c(F)cccc1F)C(=O)NCCC1=CCCCC1` (stereo not drawn) was more than 50.6 µg/mL. Consider `Cc1ccc2cc(NC(=O)CC(CC(=O)O)c3ccccc3)ccc2n1` (stereo not drawn), for which the solubility (kinetic) was 47 µg/mL (≈ 135 µM). `CCN(CC)C(=O)C12CC3CC(CC(Br)(C3)C1)C2` showed a solubility (kinetic) of 32.7 µg/mL (≈ 104 µM). Next, `O=S(=O)(c1ccc(Cl)s1)N1CCCCC1`: 22 µg/mL (≈ 82.8 µM); `CSc1ccc(C(=O)NCC(c2ccco2)N(C)C)cc1[N+](=O)[O-]` (stereo not drawn): more than 52.4 µg/mL. The value for `COc1ccc(/C=C2/NC(=O)CNC2=O)cc1` was more than 34.8 µg/mL. The value for `COc1ccccc1NC(=O)Nc1sccc1-c1nc2ccccc2s1` was 2.8 µg/mL (≈ 7.34 µM).

As to `Cc1cccc(C(=O)NCC(c2ccco2)N(C)C)c1` (stereo not drawn), the solubility (kinetic) turned out to be 36.9 µg/mL (≈ 135 µM).

`CSc1ncc(C(=O)Nc2ccccc2C)c(C)n1`: the kinetic solubility was more than 41 µg/mL. The value for `CCSc1nc2sc3c(c2c(=O)n1-c1ccccc1)CCN(C(C)C)C3` was 37 µg/mL (≈ 96 µM). Consider `COc1ccccc1NC(=S)N(C(C)C)C(C)c1ccccn1` (stereo not drawn), for which the kinetic solubility turned out to be 37.8 µg/mL (≈ 115 µM). Next, `CC1(c2ccc3ccccc3c2)NC(=O)N(CC(=O)O)C1=O` (stereo not drawn): more than 44.7 µg/mL; `CCc1cccc(NC(=O)C(NC(=O)C2CCCCC2)C(C)C)c1` (stereo not drawn): 0.6 µg/mL (≈ 1.82 µM); `CCCCC(=O)NCc1ccccc1Cl`: more than 33.9 µg/mL. Next, `Cc1ccc(C(C)C)cc1S(=O)(=O)Nc1cccnc1`: 3.5 µg/mL (≈ 12.1 µM). The value for `CCC(C)Nc1nc2c(c(=O)[nH]c(=O)n2C)n1CCOc1ccccc1` (stereo not drawn) was 19.8 µg/mL (≈ 55.4 µM); that for `O=C(c1ccco1)N1CCN(Cc2nc3ccccc3[nH]2)CC1` was 41.2 µg/mL (≈ 133 µM). The compound `CS(=O)(=O)N(CC(=O)Nc1ccc(F)cc1)C1CCCCC1` had a kinetic solubility of 45.3 µg/mL (≈ 138 µM).

On to `CC(C)NC(=O)CN1CCC(c2nc3ccccc3[nH]2)CC1`, for which the kinetic solubility is more than 45.1 µg/mL. The value for `COc1ccccc1N=C1SCC(=O)N1Cc1ccco1` was 35.8 µg/mL (≈ 118 µM). Compound `N#CCOc1ccccc1/C=C/c1nc2ccccc2c(=O)[nH]1` had a solubility (kinetic) of 5 µg/mL (≈ 16.5 µM). The value for `O=C1NC(=O)C(Cc2cccc(Oc3ccccc3)c2)S1` (stereo not drawn) was more than 44.9 µg/mL; that for `Cn1c(N)c(C(=O)COC(=O)Cc2ccc(Br)cc2)c(=O)n(C)c1=O` was 0.7 µg/mL (≈ 1.71 µM); that for `Cc1cc(C(=O)N2CCOCC2)c(C)o1` was more than 31.4 µg/mL.

As to `CC1C(=O)Nc2ccccc2N1C(=O)c1ccc(F)cc1F` (stereo not drawn), the solubility (kinetic) was more than 45.3 µg/mL. The value for `CCOc1cc(C2NC(=O)c3ccccc3O2)ccc1OC(C)C` (stereo not drawn) was 14.1 µg/mL (≈ 43.1 µM). As to `Cc1cccc(C(=O)NCC(=O)OCc2nc(N)nc(Nc3ccccc3C)n2)c1`, the solubility (kinetic) was 53.8 µg/mL (≈ 132 µM).

`COc1ccc(-c2cc(C(=O)Nc3cccc(Cl)c3)no2)cc1` registered a kinetic solubility of less than 0.4 µg/mL. In the case of `CC(=O)Nc1cccc(NC(=O)C2CC(=O)N(CCc3ccc(F)cc3)C2)c1` (stereo not drawn), the kinetic solubility was determined as 38.4 µg/mL (≈ 100 µM). Next, `O=C(NCCc1ccccc1)C1CC1`: more than 28.4 µg/mL. The value for `CC(NC(=O)c1ccccc1F)c1ccccc1` (stereo not drawn) was more than 36.5 µg/mL; that for `CN(C)c1nc(N(C)C)nc(N(C#N)Cc2ccc(Cl)cc2)n1` was 0.3 µg/mL (≈ 0.904 µM); that for `COc1cccc(NC(=O)c2cc3ccccc3o/c2=N\O)c1` was 22.2 µg/mL (≈ 71.5 µM).

Compound `O=C(CSc1ncccn1)Nc1ccc2c(c1)OCO2` displayed a kinetic solubility of more than 43.4 µg/mL.

`Cc1ccc(Cl)cc1NC(=O)COC(=O)CCN1C(=O)C2CC=CCC2C1=O` (stereo not drawn): the kinetic solubility was more than 60.7 µg/mL.

Turning to `COc1ccc(C)cc1NC(=O)CN(C)C1CCCCC1`, the kinetic solubility was 30.9 µg/mL (≈ 106 µM). The value for `Cc1ccc2nc(SCC(=O)Nc3c(F)cccc3F)[nH]c2c1` was 43.4 µg/mL (≈ 130 µM); that for `COc1ccc(NC(=O)CC(C(=O)O)C(C)c2ccccc2)cc1` (stereo not drawn) was more than 49.1 µg/mL; that for `O=C(COc1ccccc1N1C(=O)C2C3C=CC(C3)C2C1=O)c1ccccc1` (stereo not drawn) was more than 56 µg/mL.

In turn, `Oc1ccc(NCc2cccs2)cc1` displayed a kinetic solubility of 26.5 µg/mL (≈ 129 µM). Next, `CSc1ccc(/C=C/C(=O)NC(=O)c2ccccc2O)cc1`: 3.9 µg/mL (≈ 12.4 µM); `CCCn1c(CCNC(=O)c2ccco2)nc2ccccc21`: 41.7 µg/mL (≈ 140 µM); `Cc1cccc2[nH]c3c(N4CC=C(c5ccc(F)cc5)CC4)ncnc3c12`: 1 µg/mL (≈ 2.79 µM). Turning to `CSc1ccccc1NC(=O)COC(=O)CCc1ccccc1`, the kinetic solubility was 27.8 µg/mL (≈ 84.4 µM).

`CC(=O)Nc1ccc(NC(=O)CC23CC4CC(CC(C4)C2)C3)cc1` came in with a kinetic solubility of 21.3 µg/mL (≈ 65.2 µM). The value for `CC(=O)c1c(C)[nH]c(C(=O)OCc2ccc([N+](=O)[O-])cc2)c1C` was 2.1 µg/mL (≈ 6.64 µM); that for `OCCCNc1ncnc2c1[nH]c1ccccc12` was 35.6 µg/mL (≈ 147 µM); that for `Cc1ccc(NC(=O)c2ccc(F)cc2F)cc1NS(C)(=O)=O` was 39.7 µg/mL (≈ 117 µM). Compound `Cc1cc(C(=O)N2CCN(Cc3ccccc3)CC2)ccc1[N+](=O)[O-]` displayed a solubility (kinetic) of more than 50.9 µg/mL. In the case of `C#CCn1c(-c2cccs2)nc2ccccc21`, the solubility (kinetic) is more than 35.7 µg/mL. Next, `COC(=O)C1=C(C)N(CCc2c[nH]c3ccccc23)C(=O)C1`: 42.8 µg/mL (≈ 143 µM); `O=C(COC(=O)c1c(Cl)cccc1Cl)NC1CCCCCCC1`: 8.2 µg/mL (≈ 22.9 µM). With `Cc1cc(-c2ccccc2)nc2oc3c(c12)NC(=O)CN(c1ccccc1)C3=O`, the solubility (kinetic) is less than 0.3 µg/mL. `COC(=O)c1sccc1NC(=O)c1c(F)c(F)c(F)c(F)c1F` came in with a kinetic solubility of less than 0.8 µg/mL. Regarding `O=[N+]([O-])c1ccc([N+](=O)[O-])c(Nc2ccc(N3CCOCC3)cc2)c1`, the solubility (kinetic) was less than 0.2 µg/mL. The value for `O=C(NCCN1CCCCC1)c1ccc(F)cc1Cl` was more than 42.7 µg/mL; that for `COc1ccccc1CCNS(=O)(=O)c1cn(C)c(=O)n(C)c1=O` was more than 53 µg/mL; that for `O=C(CN(Cc1ccco1)C(=O)c1ccc(F)cc1)Nc1ccccc1Br` was more than 64.7 µg/mL. For `O=C(Nc1ccc(NC(=O)c2cccs2)cc1Cl)c1ccco1`, the kinetic solubility worked out at 1.1 µg/mL (≈ 3.17 µM).

For the compound `COc1ccc(-c2nc(N)ncc2-c2ccccc2OC)c(O)c1`, the solubility (kinetic) was 23.3 µg/mL (≈ 72.1 µM). With `COc1cccc(N/C(N)=N/c2nc(C)cc(=O)[nH]2)c1`, the solubility (kinetic) was 40.6 µg/mL (≈ 149 µM).

In turn, `CC(C)(C)c1ccc(C(=O)Nc2ccc(F)cc2)s1` returned a kinetic solubility of less than 0.6 µg/mL. Next, `CCOc1ccc(-c2nonc2NC(=O)c2ccco2)cc1`: 12.1 µg/mL (≈ 40.4 µM).

Regarding `COc1cc2c(cc1OC)CN(C(=O)CCNC(=O)c1ccccc1Cl)CC2`, the kinetic solubility was more than 60.4 µg/mL.

Regarding `Cc1cc(C)nc(SCc2c(F)cccc2Cl)n1`, the kinetic solubility is less than 0.3 µg/mL. On to `O=C(NCC(=O)N1CCCCCCC1)c1ccco1`, for which the kinetic solubility was more than 39.6 µg/mL. The value for `CC1CC(C)CN(S(=O)(=O)c2cccc3nsnc23)C1` (stereo not drawn) was 8.4 µg/mL (≈ 27 µM); that for `O=C(/C=C/c1cccs1)c1ccc([N+](=O)[O-])cc1` was 1.9 µg/mL (≈ 7.33 µM); that for `Cc1cc(Br)ccc1NC(=O)CNC(=O)c1cnn(C)c1` was more than 52.7 µg/mL. `CC(C)Nc1nc(Cl)nc(Nc2ccccc2)n1` registered a solubility (kinetic) of 27.3 µg/mL (≈ 104 µM).

As for `C=CCn1c(O)c(C(CC)=Nc2ccc(N(C)C)cc2)c(=O)[nH]c1=O`, the kinetic solubility came out at 1.5 µg/mL (≈ 4.38 µM).

`NC(=O)c1cccc(CS(=O)(=O)c2ccc(Cl)cc2)c1` returned a kinetic solubility of 16.4 µg/mL (≈ 52.9 µM). The value for `O=C1NC(=S)N/C1=C\C=C\c1ccccc1` was 1.7 µg/mL (≈ 7.38 µM); that for `CC(=O)N1CCN(Cc2nc3ccc(Cl)cc3n2CCO)CC1` was more than 50.5 µg/mL.

In turn, `CC1CN(C(=O)COC(=O)c2c(Cl)cccc2Cl)CC(C)O1` (stereo not drawn) showed a kinetic solubility of 49.5 µg/mL (≈ 143 µM). `CCC(C(=O)Nc1ccc(N2CCOCC2)c(S(=O)(=O)Nc2ccccc2OC)c1)c1ccccc1` (stereo not drawn): the kinetic solubility is 7.4 µg/mL (≈ 14.5 µM). `Cc1ccc(C(=O)N2CC(=O)NC(=O)C2)cc1` registered a solubility (kinetic) of 29.6 µg/mL (≈ 127 µM). In turn, `COc1ccc(OCCC(=O)OCC(=O)NCCc2ccccc2)cc1` had a solubility (kinetic) of 52.8 µg/mL (≈ 148 µM).

In turn, `O=C(CN1CCC(NC(=O)C2CCCCC2)CC1)Nc1cccc(F)c1` displayed a solubility (kinetic) of 18.4 µg/mL (≈ 50.9 µM). `Cn1c(=O)[nH]c(=O)c2c1nc1n2CCCN1Cc1ccccc1` came in with a solubility (kinetic) of 8.1 µg/mL (≈ 26 µM). `O=C(Cc1ccccc1[N+](=O)[O-])Nc1ccccc1C(=O)N1CCOCC1` gave a kinetic solubility of more than 55.4 µg/mL. In turn, `O=C(CSc1ccccn1)Nc1cccc2ccccc12` displayed a solubility (kinetic) of 29.5 µg/mL (≈ 100 µM). The value for `Cc1cccc(NC(=O)c2c(-c3ccccc3)noc2C)n1` was 34.9 µg/mL (≈ 119 µM).

In turn, `O=C1C2C3C=CC(CC3)C2C(=O)N1c1ccccc1` (stereo not drawn) yielded a kinetic solubility of 25.9 µg/mL (≈ 102 µM). In turn, `CCCN(CCC)S(=O)(=O)c1ccc(C(=O)O)cc1` had a kinetic solubility of more than 42.8 µg/mL. As for `COc1ccc(OCC(=O)O/N=C(\N)c2ccc(OC)cc2)cc1`, the solubility (kinetic) was 1.2 µg/mL (≈ 3.63 µM). Compound `Brc1ccccc1OCCCOc1cccc2cccnc12` had a solubility (kinetic) of 1.5 µg/mL (≈ 4.19 µM).
